From PMC12988607 (BMC Pharmacology & Toxicology, 2026)
Read-outs that look alike come from different tables or passages of the source.

How the values were obtained:
[1] = tested on: healthy Chinese volunteers; test: RAAS-related parameters; type: in vivo; conditions: for Ang II: after EMPA
[2] = tested on: healthy Chinese volunteers; test: Urine PD parameters; type: in vivo; conditions: for urine-GLU: 0~4 h after 10 mg EMPA, p < 0.001
[3] = tested on: healthy Chinese volunteers; test: Blood PD parameters; type: in vivo; conditions: p < 0.05; for blood-GLU / insulin: fasting group; for blood-GLU: before EMPA (5.1 ± 0.4) mmol/L; for insulin: before EMPA (7.0 ± 3.7) mU/L
[4] = cited from earlier work
[5] = within 3 hours; cited from earlier work
[6] = type: in vivo, healthy Chinese volunteers; conditions: for AUC(0-t): AUC0-t; for AUC(0-t) / AUC(0-inf) / Cmax / Tmax: geometric mean; for AUC(0-inf): AUC0-∞; for half-life: t1/2, geometric mean
[7] = Fed (high-fat diet), single 10 mg EMPA
[8] = human, plasma, oral, 10 mg, Fasting, single 10 mg EMPA
[9] = human, plasma, oral, 10 mg, Fed (high-fat diet), single 10 mg EMPA

With OC[C@H]1O[C@@H](c2ccc(Cl)c(Cc3ccc(O[C@H]4CCOC4)cc3)c2)[C@H](O)[C@@H](O)[C@@H]1O [EMPA, empagliflozin] the “ALD levels, after vs before EMPA” value ([1]; fasting group) was “no significant differences”, the PRC ([1]; fasting group, 2 h after EMPA, before EMPA (37.3 ± 25.8) pg/mL, p < 0.05) was 52.2 ± 28.2 pg/mL and the PRC ([1]; fasting group, 4 h after EMPA, before EMPA (37.3 ± 25.8) pg/mL, p < 0.05) was 51.5 ± 23.7 pg/mL. The “Ang II” value ([1]; fasting group, before EMPA (81.9 ± 9.9) pg/mL, p < 0.05) was 88.2 ± 10.3 pg/mL, the “ALD levels, after vs before EMPA” value ([1]; fed group) was “no significant differences” and the PRC ([1]; fed group, 4 h after EMPA, before EMPA (32.5 ± 22.4) pg/mL, p = ns) was 30.4 ± 18.9 pg/mL. For the same compound, the “Ang II” value ([1]; fed group, before EMPA (91.6 ± 26.7) pg/mL, p < 0.05) was 82.6 ± 23.3 pg/mL, the urine-GLU ([2]; fasting group (n = 19), before EMPA (0.3 ± 0.2) mmol/L) was 70.9 ± 29.9 mmol/L and the β2-MG ([2]; fasting group, urine after EMPA, before EMPA (0.148 ± 0.054) mg/L, p < 0.05) was 0.080 ± 0.065 mg/L. The α1-MG ([2]; fasting group, urine after EMPA, before EMPA (2.9 ± 1.7) mg/L, p < 0.05) was 1.9 ± 1.8 mg/L, the “α1-MG level, after vs before EMPA” value ([2]; fed group (EMPA post-meal), urine) was “did not show a significant difference” and the urine-GLU ([2]; fed group (n = 23), before EMPA (0.3 ± 0.3) mmol/L) was 89.6 ± 35.4 mmol/L. The urine-UA ([2]; fed group, after 4 h of EMPA administration, comparison value (2223.8 ± 891.1) mmol/L, p < 0.05) was 2751.5 ± 1018.1 mmol/L, the β2-MG ([2]; fed group, urine after EMPA, before EMPA (0.145 ± 0.075) mg/L, p < 0.05) was 0.094 ± 0.059 mg/L and the blood-GLU ([3]; 2 h after EMPA) was 4.8 ± 0.3 mmol/L. The insulin ([3]; 2 h after EMPA) was 5.0 ± 2.2 mU/L, the blood-GLU ([3]; 4 h after EMPA) was 4.7 ± 0.3 mmol/L and the insulin ([3]; 4 h after EMPA) was 4.7 ± 3.2 mU/L. It also gave a BUN ([3]; fed group, 4 h after EMPA, before EMPA (4.4 ± 1.0) mmol/L) of 5.5 ± 1.0 mmol/L, an SCr ([3]; fed group, 4 h after EMPA, before EMPA (66.0 ± 8.4) mmol/L as printed) of 71.5 ± 9.7 µmol/L and an eGFR ([3]; fed group, 4 h after EMPA, before EMPA (141.6 ± 22.0)) of 128.3 ± 20.7 ml/min/1.73 m^2. For the same compound, the blood-UA ([3]; fed group, 4 h after EMPA, comparison value (369.2 ± 62.9) μmol/L) was 342.6 ± 57.6 µmol/L, the “effect of a high-fat diet (HFD) on Cmax and AUC” value ([4]; 25 mg and 50 mg EMPA) was “reduce” and the bioavailability [4] was “poor”. For the same compound, the “time to reach Cmax” value [4] was 1.33 to 3.0 h, the “increase in urinary glucose excretion” value [5] was 27 times and the “Plasma concentrations Fasting/fed” value ([6]; 0.5 h after 10 mg EMPA) was 3.00. For the same compound, the “Plasma concentrations Fasting/fed” value ([6]; 1 h after 10 mg EMPA) was 2.27, the “Plasma concentrations Fasting/fed” value ([6]; 1.25 h after 10 mg EMPA) was 1.92 and the “Plasma concentrations Fasting/fed” value ([6]; 1.5 h after 10 mg EMPA) was 1.71. For the same compound, the “Plasma concentrations Fasting/fed” value ([6]; 1.75 h after 10 mg EMPA) was 1.68, the “Plasma concentrations Fasting/fed” value ([6]; 2 h after 10 mg EMPA) was 1.61 and the “Plasma concentrations Fasting/fed” value ([6]; 2.25 h after 10 mg EMPA) was 1.62. The “Plasma concentrations Fasting/fed” value ([6]; 2.75 h after 10 mg EMPA) was 1.55, the “Plasma concentrations Fasting/fed” value ([6]; 3 h after 10 mg EMPA) was 1.55 and the “Plasma concentrations Fasting/fed” value ([6]; 4 h after 10 mg EMPA) was 1.40. For the same compound, the “Plasma concentrations Fasting/fed” value ([6]; 6 h after 10 mg EMPA) was 1.36, the “Plasma concentrations Fasting/fed” value ([6]; 8 h after 10 mg EMPA) was 1.30 and the “Plasma concentrations Fasting/fed” value ([6]; 10 h after 10 mg EMPA) was 1.24. For the same compound, the “Plasma concentrations Fasting/fed” value ([6]; 12 h after 10 mg EMPA) was 1.21, the “Plasma concentrations Fasting/fed” value ([6]; 24 h after 10 mg EMPA) was 1.09 and the “Plasma concentrations Fasting/fed” value ([6]; 36 h after 10 mg EMPA) was 1.09. The “Plasma concentrations Fasting/fed” value ([6]; 48 h after 10 mg EMPA) was 1.03, the “AUC_%Extrap, geometric mean” value ([6]; Fasting, single 10 mg EMPA) was 1.80% and the “AUC_%Extrap, geometric mean” value [6, 7] was 2.57%. The “λz, geometric mean” value [6, 7] was 0.08 h⁻¹, the k el ([6]; human, plasma, oral, 10 mg) was 2.22e-05 s⁻¹ and the AUC(0-t) [6, 8] was 1310 ng·h/mL. For the same compound, the AUC(0-t) [6, 9] was 951 ng·h/mL, the AUC(0-inf) [6, 8] was 1330 ng·h/mL and the AUC(0-inf) [6, 9] was 978 ng·h/mL. For the same compound, the Cmax [6, 8] was 187 ng/mL, the Cmax [6, 9] was 113 ng/mL and the concentration at 1 h ([6]; human, plasma, oral, 10 mg, Plasma concentrations, Fasting (n = 56), 1 h after 10 mg EMPA) was 166 ± 60.6 ng/mL. The concentration at 2 h ([6]; human, plasma, oral, 10 mg, Plasma concentrations, Fasting (n = 56), 2 h after 10 mg EMPA) was 152 ± 27.3 ng/mL, the concentration at 3 h ([6]; human, plasma, oral, 10 mg, Plasma concentrations, Fasting (n = 56), 3 h after 10 mg EMPA) was 123 ± 17.9 ng/mL and the concentration at 4 h ([6]; human, plasma, oral, 10 mg, Plasma concentrations, Fasting (n = 56), 4 h after 10 mg EMPA) was 104 ± 16.4 ng/mL. It also gave a concentration at 6 h ([6]; human, plasma, oral, 10 mg, Plasma concentrations, Fasting (n = 56), 6 h after 10 mg EMPA) of 72 ± 12.5 ng/mL, a concentration at 8 h ([6]; human, plasma, oral, 10 mg, Plasma concentrations, Fasting (n = 56), 8 h after 10 mg EMPA) of 52.6 ± 9.1 ng/mL and a concentration at 10 h ([6]; human, plasma, oral, 10 mg, Plasma concentrations, Fasting (n = 56), 10 h after 10 mg EMPA) of 40.4 ± 8.2 ng/mL. For the same compound, the concentration at 12 h ([6]; human, plasma, oral, 10 mg, Plasma concentrations, Fasting (n = 56), 12 h after 10 mg EMPA) was 30.7 ± 6.5 ng/mL, the concentration at 24 h ([6]; human, plasma, oral, 10 mg, Plasma concentrations, Fasting (n = 56), 24 h after 10 mg EMPA) was 10.1 ± 3 ng/mL and the concentration at 36 h ([6]; human, plasma, oral, 10 mg, Plasma concentrations, Fasting (n = 56), 36 h after 10 mg EMPA) was 3.5 ± 1.4 ng/mL. The concentration at 48 h ([6]; human, plasma, oral, 10 mg, Plasma concentrations, Fasting (n = 56), 48 h after 10 mg EMPA) was 2.2 ± 0.9 ng/mL, the concentration at 0.5 h ([6]; human, plasma, oral, 10 mg, Plasma concentrations, Fed (n = 58), high-fat diet, 0.5 h after 10 mg EMPA) was 34.2 ± 31 ng/mL and the concentration at 1 h ([6]; human, plasma, oral, 10 mg, Plasma concentrations, Fed (n = 58), high-fat diet, 1 h after 10 mg EMPA) was 72.9 ± 49.5 ng/mL. It also gave a concentration at 1.25 h ([6]; human, plasma, oral, 10 mg, Plasma concentrations, Fed (n = 58), high-fat diet, 1.25 h after 10 mg EMPA) of 87.4 ± 39.2 ng/mL, a concentration at 1.5 h ([6]; human, plasma, oral, 10 mg, Plasma concentrations, Fed (n = 58), high-fat diet, 1.5 h after 10 mg EMPA) of 95.7 ± 33.7 ng/mL and a concentration at 1.75 h ([6]; human, plasma, oral, 10 mg, Plasma concentrations, Fed (n = 58), high-fat diet, 1.75 h after 10 mg EMPA) of 94.1 ± 28.1 ng/mL. It also gave a concentration at 2 h ([6]; human, plasma, oral, 10 mg, Plasma concentrations, Fed (n = 58), high-fat diet, 2 h after 10 mg EMPA) of 94.2 ± 26.3 ng/mL, a concentration at 2.25 h ([6]; human, plasma, oral, 10 mg, Plasma concentrations, Fed (n = 58), high-fat diet, 2.25 h after 10 mg EMPA) of 91.5 ± 22.6 ng/mL and a concentration at 2.75 h ([6]; human, plasma, oral, 10 mg, Plasma concentrations, Fed (n = 58), high-fat diet, 2.75 h after 10 mg EMPA) of 83.9 ± 16 ng/mL. It also gave a concentration at 3 h ([6]; human, plasma, oral, 10 mg, Plasma concentrations, Fed (n = 58), high-fat diet, 3 h after 10 mg EMPA) of 79.4 ± 15 ng/mL, a concentration at 4 h ([6]; human, plasma, oral, 10 mg, Plasma concentrations, Fed (n = 58), high-fat diet, 4 h after 10 mg EMPA) of 74.4 ± 11.1 ng/mL and a concentration at 6 h ([6]; human, plasma, oral, 10 mg, Plasma concentrations, Fed (n = 58), high-fat diet, 6 h after 10 mg EMPA) of 53.1 ± 8.8 ng/mL. For the same compound, the concentration at 8 h ([6]; human, plasma, oral, 10 mg, Plasma concentrations, Fed (n = 58), high-fat diet, 8 h after 10 mg EMPA) was 40.5 ± 7.6 ng/mL, the concentration at 10 h ([6]; human, plasma, oral, 10 mg, Plasma concentrations, Fed (n = 58), high-fat diet, 10 h after 10 mg EMPA) was 32.7 ± 6.7 ng/mL and the concentration at 12 h ([6]; human, plasma, oral, 10 mg, Plasma concentrations, Fed (n = 58), high-fat diet, 12 h after 10 mg EMPA) was 25.4 ± 4.9 ng/mL. The concentration at 24 h ([6]; human, plasma, oral, 10 mg, Plasma concentrations, Fed (n = 58), high-fat diet, 24 h after 10 mg EMPA) was 9.3 ± 1.8 ng/mL, the concentration at 36 h ([6]; human, plasma, oral, 10 mg, Plasma concentrations, Fed (n = 58), high-fat diet, 36 h after 10 mg EMPA) was 3.2 ± 1.2 ng/mL and the concentration at 48 h ([6]; human, plasma, oral, 10 mg, Plasma concentrations, Fed (n = 58), high-fat diet, 48 h after 10 mg EMPA) was 2.2 ± 0.8 ng/mL. The Tmax [6, 8] was 1.31 h, the Tmax [6, 9] was 1.67 h and the half-life [6, 8] was 8.18 h. It also gave a half-life [6, 9] of 8.34 h.
